Laboratory results reported in patent US20250081967A1, “PESTICIDALLY ACTIVE HETEROCYCLIC DERIVATIVES WITH SULFOXIMINE CONTAINING SUBSTITUENTS” (SYNGENTA CROP PROTECTION AG, priority 2021, published 2025).

Experiments:
Type in all cases: in vivo
Plutella xylostella [1] = test: Activity against Plutella xylostella (diamond back moth), artificial diet, eggs; settings: 192 h, application rate 200 ppm, 8 days after infestation, read-out: effect in at least one of the two categories (mortality or growth inhibition)
Procedure, shortened: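 Artificial diet in wells treated with aqueous dilutions of 10′000 ppm DMSO stocks, dried, then infested with Plutella eggs. Mortality and growth inhibition scored against untreated samples 8 days after infestation.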

Diabrotica balteata = test: Activity against Diabrotica balteata (corn root worm), maize sprouts; settings: 96 h, application rate 200 ppm, L2 larvae, 4 days after infestation, read-out: effect in at least one of the two categories (mortality or growth inhibition)
Method: Example B3: Activity Against Diabrotica Balteata (Corn Root Worm)
Maize sprouts placed onto an agar layer in 24-well microtiter plates were treated with aqueous test solutions prepared from 10′000 ppm DMSO stock solutions by spraying. After drying, the plates were infested with L2 larvae (6 to 10 per well). The samples were assessed for mortality and growth inhibition in comparison to untreated samples 4 days after infestation.

Myzus persicae [2] = test: Activity against Myzus persicae (green peach aphid), feeding/contact activity, sunflower leaf discs; settings: Myzus persicae, foliar, 144 h, application rate 200 ppm; feeding/contact; 6 days after infestation
Method: Example B4: Activity Against Myzus persicae (Green Peach Aphid) Feeding/Contact Activity
(§1) Sunflower leaf discs were placed on agar in a 24-well microtiter plate and sprayed with aqueous test solutions prepared from 10′000 ppm DMSO stock solutions. After drying, the leaf discs were infested with an aphid population of mixed ages. The samples were assessed for mortality 6 days after infestation.

Tetranychus urticae = test: Activity against Tetranychus urticae (two-spotted spider mite), bean leaf discs; settings: foliar, 192 h, application rate 200 ppm, mixed population (mobile stages), 8 days after infestation
Method: Example B10: Activity Against Tetranychus urticae (Two-Spotted Spider Mite)
Bean leaf discs on agar in 24-well microtiter plates were sprayed with aqueous test solutions prepared from 10′000 ppm DMSO stock solutions. After drying the leaf discs were infested with a mite population of mixed ages. The samples were assessed for mortality on mixed population (mobile stages) 8 days after infestation.

Euschistus heros = test: Activity against Euschistus heros (neotropical brown stink bug), soybean leaf; settings: 120 h, application rate 200 ppm, N-2 nymphs, 5 days after infestation, read-out: effect in at least one of the two categories (mortality or growth inhibition)
Method: Example B7: Activity Against Euschistus heros (Neotropical Brown Stink Bug)
Soybean leaf on agar in 24-well microtiter plates were sprayed with aqueous test solutions prepared from 10′000 ppm DMSO stock solutions. After drying the leaf were infested with N-2 nymphs. The samples were assessed for mortality and growth inhibition in comparison to untreated samples 5 days after infestation.

Bemisia tabaci = test: Activity against Bemisia tabaci (cotton white fly), cotton leaf discs; settings: foliar, 144 h, application rate 200 ppm, adult white flies, 6 days after incubation
Method: Example B6: Activity Against Bemisia tabaci (Cotton White Fly)
Cotton leaf discs were placed on agar in 24-well microtiter plates and sprayed with aqueous test solutions prepared from 10′000 ppm DMSO stock solutions. After drying the leaf discs were infested with adult white flies. The samples were checked for mortality 6 days after incubation.

[3] = tested on: Frankliniella occidentalis; test: Activity against Frankliniella occidentalis (western flower thrips), sunflower leaf discs; settings: foliar, 168 h, application rate 200 ppm, mixed ages, 7 days after infestation
Method: Example B8: Activity Against Frankliniella occidentalis (Western Flower Thrips)
as §1, with “in” for “in a”, “plates” for “plate”, “[…]” for “10′000 ppm”, “drying” for “drying,”, “a Frankliniella” for “an aphid”, “7” for “6”

Myzus persicae [4] = test: Activity against Myzus persicae (green peach aphid), systemic activity, pea seedlings; settings: Myzus persicae, 144 h, test rate 24 ppm; systemic; 6 days after placing seedlings in test solutions
Method: Example B5: Activity Against Myzus persicae (Green Peach Aphid) Systemic Activity
Roots of pea seedlings infested with an aphid population of mixed ages were placed directly in the aqueous test solutions prepared from 10′000 DMSO stock solutions. The samples were assessed for mortality 6 days after placing seedlings in test solutions.

Plutella xylostella [5] = test: Activity against Plutella xylostella (diamond back moth), artificial diet, L2 larvae; settings: 120 h, application rate 200 ppm, 5 days after infestation, read-out: effect in at least one of the two categories (mortality or growth inhibition)
Method: Example B2: Activity Against Plutella xylostella (Diamond Back Moth)
24-well microtiter plates with artificial diet were treated with aqueous test solutions prepared from 10′000 ppm DMSO stock solutions by pipetting. After drying, the plates were infested with L2 larvae (10 to 15 per well). The samples were assessed for mortality and growth inhibition in comparison to untreated samples 5 days after infestation.

Spodoptera littoralis = test: Activity against Spodoptera littoralis (Egyptian cotton leaf worm), cotton leaf discs; settings: foliar, 72 h, application rate 200 ppm, L1 larvae, 3 days after infestation, read-out: control (mortality, anti-feeding effect or growth inhibition)
Procedure, shortened: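 Cotton leaf discs on agar sprayed with aqueous test solutions made from 10′000 ppm DMSO stocks, dried, then infested with five L1 larvae. Mortality, anti-feeding and growth inhibition scored versus untreated samples 3 days after infestation; control given when any category exceeds untreated.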

CCS(=N)(=O)c1cc(OC(C)(C)C#N)cnc1-c1cn2cnc(SC(F)(F)F)cc2n1 (racemic) [Compound P7, 2-[[5-(ethylsulfonimidoyl)-6-[7-(trifluoromethylsulfanyl)imidazo[1,2-c]pyrimidin-2-yl]-3-pyridyl]oxy]-2-methyl-propanenitrile]
≥ 80%: percent effect (mortality or growth inhibition) at 200 ppm (Plutella xylostella [1]) | percent effect (mortality or growth inhibition) at 200 ppm (Diabrotica balteata) | mortality at 200 ppm (Myzus persicae [2]) | mortality at 200 ppm (Tetranychus urticae) | percent effect (mortality or growth inhibition) at 200 ppm (Euschistus heros) | mortality at 200 ppm (Bemisia tabaci) | mortality at 200 ppm [3]

CCS(=N)(=O)c1cc(OC(C)(C)C#N)cnc1-c1nc2cc(C(F)(F)F)ncc2n1C (racemic) [Compound P13, 2-[[5-(ethylsulfonimidoyl)-6-[3-methyl-6-(trifluoromethyl)imidazo[4,5-c]pyridin-2-yl]-3-pyridyl]oxy]-2-methyl-propanenitrile]
≥ 80%: mortality at 24 ppm (Myzus persicae [4]) | percent effect (mortality or growth inhibition) at 200 ppm (Diabrotica balteata) | mortality at 200 ppm (Myzus persicae [2]) | mortality at 200 ppm (Tetranychus urticae) | percent effect (mortality or growth inhibition) at 200 ppm (Euschistus heros) | mortality at 200 ppm (Bemisia tabaci) | percent effect (mortality or growth inhibition) at 200 ppm (Plutella xylostella [5]) | percent control (mortality, anti-feedant effect or growth inhibition) at 200 ppm (Spodoptera littoralis)

CCn1c(C(F)(F)F)cc2nc(-c3ncc(OC(C)(C)C#N)cc3S(=N)(=O)CC)n(C)c2c1=O (single isomer, unassigned) [Compound P19-A, 2-[[6-[5-ethyl-3-methyl-4-oxo-6-(trifluoromethyl)imidazo[4,5-c]pyridin-2-yl]-5-(ethylsulfonimidoyl)-3-pyridyl]oxy]-2-methyl-propanenitrile]
≥ 80%: mortality at 24 ppm (Myzus persicae [4]) | percent effect (mortality or growth inhibition) at 200 ppm (Plutella xylostella [1]) | percent effect (mortality or growth inhibition) at 200 ppm (Diabrotica balteata) | mortality at 200 ppm (Myzus persicae [2]) | mortality at 200 ppm (Tetranychus urticae) | percent effect (mortality or growth inhibition) at 200 ppm (Euschistus heros) | mortality at 200 ppm (Bemisia tabaci) | percent control (mortality, anti-feedant effect or growth inhibition) at 200 ppm (Spodoptera littoralis)
